According to US12023319B2, “Carboxylic acid aromatic amides” (priority 2016, dated 2024):
pIC50: −log10 of the molar value.

The compounds below were run against T1, human Bradykinin B1 receptor (Homo sapiens, UniProt P46663) (assay: Calcium flux assay (FLIPR), CHO-K1 cells expressing human Bradykinin B1 receptor, absence of 0.1% BSA (hB1 free IC50)). Details: absence of 0.1% BSA in assay buffer.
T1 construct: host or cells: CHO-K1
T1 sequence (P46663 1-353): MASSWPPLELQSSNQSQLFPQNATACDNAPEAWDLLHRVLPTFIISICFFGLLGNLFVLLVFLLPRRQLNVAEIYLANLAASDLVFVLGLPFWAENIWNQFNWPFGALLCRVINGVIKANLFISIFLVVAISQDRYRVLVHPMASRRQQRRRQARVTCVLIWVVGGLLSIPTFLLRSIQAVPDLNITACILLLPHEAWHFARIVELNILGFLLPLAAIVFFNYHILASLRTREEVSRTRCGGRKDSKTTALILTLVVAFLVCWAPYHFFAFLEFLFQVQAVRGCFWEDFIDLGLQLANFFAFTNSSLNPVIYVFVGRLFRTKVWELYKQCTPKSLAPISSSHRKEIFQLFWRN
Assay type: cell-based
Method in brief: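 Peak FLIPR fluorescence (538 nm) after B1 agonist peptide addition gave IC50s, scaled between DMSO and full block by 20 µM Lys-(Des-Arg-Leu)-Bradykinin. Compounds were preincubated 30 min at 28° C with calcium-dye-loaded CHO-K1 cells expressing human B1, at 8 concentrations in triplicate, 1% DMSO final.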

SMILES | pIC50
Cn1ncc2ccc(-c3c(F)cc(NC(=O)C4(c5ccc(C(F)(F)F)cc5F)CC4)cc3C(=O)O)cc21 [Example 165, 3-Fluoro-5-[({1-[2-fluoro-4-(trifluoromethyl)phenyl]cyclopropyl}carbonyl)amino]-2-(1-methyl-1H-indazol-6-yl)benzoic acid] | 7.20
O=C(O)c1cc(NC(=O)C2(c3ccc(C(F)(F)F)cc3F)CC2)cc(F)c1-c1cnc(C2CCC2)s1 [Example 168, 2-(2-Cyclobutyl-1,3-thiazol-5-yl)-3-fluoro-5-[({1-[2-fluoro-4-(trifluoromethyl)phenyl]cyclopropyl}carbonyl)amino]benzoic acid] | 8.48
O=C(O)c1cc(NC(=O)C2(c3ccc(C(F)(F)F)cc3F)CC2)cc(F)c1-c1cnn(CC(F)(F)F)c1 [Example 172, 3-Fluoro-5-[({1-[2-fluoro-4-(trifluoromethyl)phenyl]cyclopropyl}carbonyl)amino]-2-[1-(2,2,2-trifluoroethyl)-1H-pyrazol-4-yl]benzoic acid] | 7.52
CC[C@@H](C)n1cc(-c2c(F)cc(NC(=O)C3(c4ccc(C(F)(F)F)cc4F)CC3)cc2C(=O)O)cn1 [Example 136, 2-{1-[(2R)-Butan-2-yl]-1H-pyrazol-4-yl}-3-fluoro-5-[({1-[2-fluoro-4-(trifluoromethyl)phenyl]cyclopropyl}carbonyl)amino]benzoic acid] | 7.55
O=C(O)c1cc(NC(=O)C2(c3ccc(F)c(F)c3)CC2)cc(F)c1-c1cnn(C2CCC2)c1 [Example 38, 2-(1-Cyclobutyl-1H-pyrazol-4-yl)-5-({[1-(3,4-difluorophenyl)cyclopropyl]carbonyl}amino)-3-fluorobenzoic acid] | 7.66
CC(C)n1cc(-c2c(F)cc(NC(=O)C3(c4ccc(C(F)(F)F)cc4)CC3)cc2C(=O)O)cn1 [Example 85, 3-Fluoro-2-[1-(propan-2-yl)-1H-pyrazol-4-yl]-5-[({1-[4-(trifluoromethyl)phenyl]cyclopropyl}carbonyl)amino]benzoic acid] | 7.15
O=C(O)c1cc(NC(=O)C2(c3ccc(Cl)cn3)CC2)ccc1-c1cnn(C2CCC2)c1 [Example 58, 5-({[1-(5-Chloropyridin-2-yl)cyclopropyl]carbonyl}amino)-2-(1-cyclobutyl-1H-pyrazol-4-yl)benzoic acid] | 6.44
O=C(O)c1cc(NC(=O)C2(c3ccc(C(F)(F)F)cc3F)CC2)ccc1-c1ccc(Cl)s1 [Example 47, 2-(5-Chloro-2-thienyl)-5-[({1-[2-fluoro-4-(trifluoromethyl)phenyl]cyclopropyl}carbonyl)amino]benzoic acid] | 6.64
Cc1ccc(-c2c(F)cc(NC(=O)C3(c4ccc(C(F)(F)F)cc4F)CC3)cc2C(=O)O)cn1 [Example 128, 3-Fluoro-5-[({1-[2-fluoro-4-(trifluoromethyl)phenyl]cyclopropyl}carbonyl)amino]-2-(6-methylpyridin-3-yl)benzoic acid] | 7.43
Cc1ccc(C2(C(=O)Nc3ccc(-c4cnn(C5CCC5)c4)c(C(=O)O)c3)CC2)c(F)c1 [Example 80, 2-(1-Cyclobutyl-1H-pyrazol-4-yl)-5-({[1-(2-fluoro-4-methylphenyl)cyclopropyl]carbonyl}amino)benzoic acid] | 6.92
O=C(O)c1cc(NC(=O)C2(c3ccc(C(F)(F)F)cc3)CC2)ccc1-c1cnn(C2CCC2)c1 [Example 50, 2-(1-Cyclobutyl-1H-pyrazol-4-yl)-5-[({1-[4-(trifluoromethyl)phenyl]cyclopropyl}carbonyl)amino]benzoic acid] | 7.21
CC(C)(C)c1cn(-c2c(F)cc(NC(=O)C3(c4ccc(C(F)(F)F)cc4F)CC3)cc2C(=O)O)cn1 [Example 90, 2-(4-tert-Butyl-1H-imidazol-1-yl)-3-fluoro-5-[({1-[2-fluoro-4-(trifluoromethyl)phenyl]cyclopropyl}carbonyl)amino]benzoic acid] | 7.62
O=C(O)c1cc(NC(=O)C2(c3ccc(OC(F)(F)F)cc3F)CC2)cc(Cl)c1-c1ccc(C(F)F)nc1 [Example 103, 3-Chloro-2-[6-(difluoromethyl)pyridin-3-yl]-5-[({1-[2-fluoro-4-(trifluoromethoxy)phenyl]cyclopropyl}carbonyl)amino]benzoic acid] | 7.21
CC(O)c1ccc(-c2ccc(NC(=O)C3(c4ccc(C(F)(F)F)cc4F)CC3)cc2C(=O)O)cn1 (centres unmarked) [Example 33, 5-[({1-[2-Fluoro-4-(trifluoromethyl)phenyl]cyclopropyl}carbonyl)amino]-2-[6-(1-hydroxyethyl)pyridin-3-yl]benzoic acid] | 6.34
CCc1ccc(-c2c(F)cc(NC(=O)C3(c4ccc(C(F)(F)F)cc4F)CC3)cc2C(=O)O)cn1 [Example 162, 2-(6-Ethylpyridin-3-yl)-3-fluoro-5-[({1-[2-fluoro-4-(trifluoromethyl)phenyl]cyclopropyl}carbonyl)amino]benzoic acid] | 7.85

The remaining lines, values ahead:

pIC50 | SMILES
6.54 | CCC(F)(F)c1ccc(-c2ccc(NC(=O)C3(c4ccc(Cl)cc4F)CC3)cc2C(=O)O)cn1 [Example 24, 5-({[1-(4-Chloro-2-fluorophenyl)cyclopropyl]carbonyl}amino)-2-[6-(1,1-difluoropropyl)pyridin-3-yl]benzoic acid]
6.92 | CCCn1cc(-c2ccc(NC(=O)C3(c4ccc(OC(F)(F)F)cc4F)CC3)cc2C(=O)O)cn1 [Example 115, 5-[({1-[2-Fluoro-4-(trifluoromethoxy)phenyl]cyclopropyl}carbonyl)amino]-2-(1-propyl-1H-pyrazol-4-yl)benzoic acid]
6.41 | COc1ccc(C2(C(=O)Nc3ccc(-c4cnn(C5CCC5)c4)c(C(=O)O)c3)CC2)c(F)c1 [Example 171, 2-(1-Cyclobutyl-1H-pyrazol-4-yl)-5-({[1-(2-fluoro-4-methoxyphenyl)cyclopropyl]carbonyl}amino)benzoic acid]
7.77 | O=C(O)c1cc(NC(=O)C2(c3ccc(OC(F)(F)F)cc3F)CC2)ccc1-c1cnn(CC2CCC2)c1 [Example 120, 2-[1-(Cyclobutylmethyl)-1H-pyrazol-4-yl]-5-[({1-[2-fluoro-4-(trifluoromethoxy)phenyl]cyclopropyl}carbonyl)amino]benzoic acid]
6.89 | Cc1ccc(C2(C(=O)Nc3ccc(-c4cnn(CC(C)C)c4)c(C(=O)O)c3)CC2)c(F)c1 [Example 118, 5-({[1-(2-Fluoro-4-methylphenyl)cyclopropyl]carbonyl}amino)-2-(1-isobutyl-1H-pyrazol-4-yl)benzoic acid]
5.68 | O=C(O)c1cc(NC(=O)C2(c3ccc(OC(F)(F)F)cc3F)CC2)ccc1-c1cn(C2CCC2)cn1 [Example 170, 2-(1-Cyclobutyl-1H-imidazol-4-yl)-5-[({1-[2-fluoro-4-(trifluoromethoxy)phenyl]cyclopropyl}carbonyl)amino]benzoic acid]
6.25 | O=C(O)c1cc(NC(=O)C2(c3ccc(C(F)(F)F)cc3F)CC2)ccc1-c1cnn([C@@H]2CCOC2)c1 [Example 83, 5-[({1-[2-Fluoro-4-(trifluoromethyl)phenyl]cyclopropyl}carbonyl)amino]-2-{1-[(3R)-tetrahydrofuran-3-yl]-1H-pyrazol-4-yl}benzoic acid]
7.25 | CC[C@H](C)n1cc(-c2ccc(NC(=O)C3(c4ccc(OC(F)(F)F)cc4F)CC3)cc2C(=O)O)cn1 [Example 132, 2-{1-[(2S)-Butan-2-yl]-1H-pyrazol-4-yl}-5-[({1-[2-fluoro-4-(trifluoromethoxy)phenyl]cyclopropyl}carbonyl)amino]benzoic acid]
6.68 | CC(C)Cn1cc(-c2ccc(NC(=O)C3(c4ccc(F)cc4F)CC3)cc2C(=O)O)cn1 [Example 116, 5-({[1-(2,4-Difluorophenyl)cyclopropyl]carbonyl}amino)-2-(1-isobutyl-1H-pyrazol-4-yl)benzoic acid]
7.89 | O=C(O)c1cc(NC(=O)C2(c3ccc(C(F)(F)F)cc3F)CC2)ccc1-c1cnn(C2CCCCC2)c1 [Example 122, 2-(1-Cyclohexyl-1H-pyrazol-4-yl)-5-[({1-[2-fluoro-4-(trifluoromethyl)phenyl]cyclopropyl}carbonyl)amino]benzoic acid]
7.62 | Cn1ncc2ccc(-c3c(F)cc(NC(=O)C4(c5ccc(OC(F)(F)F)cc5F)CC4)cc3C(=O)O)cc21 [Example 166, 3-Fluoro-5-[({1-[2-fluoro-4-(trifluoromethoxy)phenyl]cyclopropyl}carbonyl)amino]-2-(1-methyl-1H-indazol-6-yl)benzoic acid]
5.68 | Cc1cnc(-c2ccc(NC(=O)C3(c4ccc(C(F)(F)F)cc4F)CC3)cc2C(=O)O)cn1 [Example 169, 5-[({1-[2-Fluoro-4-(trifluoromethyl)phenyl]cyclopropyl}carbonyl)amino]-2-(5-methylpyrazin-2-yl)benzoic acid]
6.77 | O=C(O)c1cc(NC(=O)C2(c3ccc(OC(F)(F)F)cc3F)CC2)ccc1-c1cnn(C2CC2)c1 [Example 125, 2-(1-Cyclopropyl-1H-pyrazol-4-yl)-5-[({1-[2-fluoro-4-(trifluoromethoxy)phenyl]cyclopropyl}carbonyl)amino]benzoic acid]
5.59 | O=C(O)c1cc(NC(=O)C2(c3ccc(OC(F)(F)F)cc3F)CC2)ccc1-n1cc(C(F)(F)F)cn1 [Example 65, 5-[({1-[2-Fluoro-4-(trifluoromethoxy)phenyl]cyclopropyl}carbonyl)amino]-2-[4-(trifluoromethyl)-1H-pyrazol-1-yl]benzoic acid]
